Data on four compounds can be found in ChEMBL document CHEMBL4118116, “Benzoxazine derivatives of phytophenols show anti-plasmodial activity via sodium homeostasis disruption” (Bioorg Med Chem Lett, 2018).

Activity calls are given as the source filed them. The calls are words filed in the database; no cut-off is given here.

Data set [1] relates to HepG2. The data set can be described thus: Cytotoxicity against human HepG2 cells assessed as reduction in cell viability at 50 uM after 24 hrs by MTT assay. Format: cell-based. Conditions: hepg2, 24 h. In general terms: Tetrazolium assays rely on reduction of a dye to a coloured formazan, in cell work by metabolically active cells.
The test system of data set [2] is Plasmodium falciparum 3D7. In words: Inhibition of P-type cation ATPase ATP4 in trophozoite stage of Plasmodium falciparum 3D7 infected in human erythrocytes assessed as swelling of intraerythrocytic parasites by measuring diameter of parasitized RBC at 50 uM after 4 hrs by sodium green dye based microscopic analysis (reference value: 5.03 micrometer). The format is cell-based.

In data set [3] the test system is Plasmodium falciparum 3D7. In words: Inhibition of P-type cation ATPase ATP4 in trophozoite stage of Plasmodium falciparum 3D7 infected in human erythrocytes assessed as increase in Na+/- levels at 50 uM by sodium green dye based microscopic analysis. The format is cell-based.
The test system of data set [4] is Plasmodium falciparum. The data set can be described thus: Growth inhibition of schizont stage Plasmodium falciparum 3D7 infected in human erythrocytes at 50 uM after 46 hrs by ethidium bromide staining based flow cytometric analysis relative to control. The format is functional. Conditions: 3D7, 46 h, read-out: GI. (A flow cytometer gives signals particle by particle.)

In data set [5] the test system is Plasmodium falciparum. In words: Growth inhibition of schizont stage Plasmodium falciparum 3D7 infected in human erythrocytes at 10 uM after 46 hrs by ethidium bromide staining based flow cytometric analysis relative to control. Format: functional. Conditions: 3D7, 46 h, read-out: GI.
Data set [6] concerns Plasmodium falciparum. In words: Antiplasmodial activity against late trophozoite stage of Plasmodium falciparum 3D7 infected in human erythrocytes measured after 46 hrs by ethidium bromide staining based flow cytometric analysis. Conditions: for EC50: 3D7, 46 h. The format is functional, organism-based.
Data set [7] concerns Plasmodium falciparum 3D7. The data set can be described thus: Inhibition of P-type cation ATPase ATP4 in trophozoite stage of Plasmodium falciparum 3D7 infected in human erythrocytes assessed as swelling of intraerythrocytic parasites by measuring diameter of parasite at 50 uM after 4 hrs by sodium green dye based microscopic analysis (reference value: 3.5 micrometer). The format is cell-based.

Data set [8] has as its system Plasmodium falciparum. The data set can be described thus: Induction of mitochondrial membrane potential loss in trophozoite stage of Plasmodium falciparum 3D7 infected in human erythrocytes assessed as decrease in JC1 red to JC1 green ratio at 50 uM by JC1 staining based microscopic analysis. The format is functional, organism-based.
Data set [9] concerns Plasmodium falciparum. The data set can be described thus: Antiplasmodial activity against late trophozoite stage of Plasmodium falciparum 3D7 infected in human erythrocytes measured after 46 hrs in presence of graphene oxide 1 by ethidium bromide staining based flow cytometric analysis. The format is functional, organism-based. Conditions: 3D7, 46 h.
The test system of data set [10] is Plasmodium falciparum. The data set can be described thus: Antiplasmodial activity against late trophozoite stage of Plasmodium falciparum 3D7 infected in human erythrocytes measured after 46 hrs in presence of graphene oxide 2 by ethidium bromide staining based flow cytometric analysis. The format is functional, organism-based. The conditions noted are these: 3D7, 46 h.

Data set [11] deals with Plasmodium falciparum. The data set can be described thus: Ratio of EC50 for antiplasmodial activity against late trophozoite stage of Plasmodium falciparum 3D7 infected in human erythrocytes to EC50 for antiplasmodial activity against late trophozoite stage of Plasmodium falciparum 3D7 infected in human erythrocytes in presence of graphene oxide 2. Format: functional.

For the compound `C=CCc1ccc(O)c(OC)c1` [EUGENOL], the Activity result in [1] is reported as “Non-Toxic”.

Usually EC50 stands for the concentration giving half of the maximal effect. Regarding `C/C=C/c1cc2c(c(OC)c1)OCN(Cc1ccco1)C2`, the Activity in [2] was 6.3 µm; in data set [6], “Dose-dependent effect”; in data set [1], “Non-Toxic”; in data set [7] it was 4.4 µm. Also, the inhibition entry in [3] was “Active”. Moreover, the inhibition of growth at 50 µM in data set [4] is 73%. In data set [5], the inhibition of growth at 10 µM worked out at 14.9%. For the same compound, the figures for the EC50 in data set [6], in data set [9] and in data set [10] were 17.5 µM, 7.19 µM and 0.49 µM, respectively. In data set [8], the result was Active. In [11], the “Ratio EC50” value worked out at 36.

With `C=CCc1cc2c(c(OC)c1)OCN(Cc1ccco1)C2`, the inhibition result in [3] was “Active”. Also, the inhibition of growth at 50 µM in data set [4] worked out at 58.5%. For the same compound, the inhibition of growth at 10 µM in [5] was found to be 4.7%. In addition, in data set [6], the Activity result was “Dose-dependent effect” and the EC50 was 22 µM. For the same compound, the Activity result in [1] is listed as “Non-Toxic”. In addition, the result in data set [8] was Active.

Regarding `C/C=C/c1ccc(O)c(OC)c1`, in [1], the Activity entry is given as “Non-Toxic”.
